The target in assay [1] is T1, human V1a receptor (Homo sapiens, UniProt P37288).
T1 construct: expressed in transfected cells; host or cells: CHO K1 (ATCC), also stably transfected with a modified aequorin
Description: Cellular in vitro assay for determining vasopressin receptor activity, V1a receptor cell line (CHO, aequorin luminescence). The assay is classed as cell-based. To be noted: for IC50: CHO cell line transfected with human V1a receptor, [Arg]-vasopressin at EC50 concentration, read-out: IC50 hV1a; for ratio IC50 hV2/hV1a: selectivity ratio IC50 hV2 / IC50 hV1a. The essentials:
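IC50 from inhibition of [Arg]-vasopressin (EC50 concentration)-evoked aequorin luminescence in CHO K1 cells, with 10-min compound pretreatment.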

Assay [2] has as its target T2, human V2 receptor (Homo sapiens, UniProt P30518).
T2 construct: expressed in transfected cells; host or cells: CHO K1 (ATCC) expressing firefly luciferase under a CRE-responsive promoter
Description: Cellular in vitro assay for determining vasopressin receptor activity, V2 receptor cell line (CHO, CRE-luciferase). The assay is classed as cell-based. To be noted: CHO cell line transfected with human V2 receptor; [Arg8]-vasopressin at EC50 concentration, 3 hours; read-out: IC50 hV2.

T2 sequence (P30518 whole entry): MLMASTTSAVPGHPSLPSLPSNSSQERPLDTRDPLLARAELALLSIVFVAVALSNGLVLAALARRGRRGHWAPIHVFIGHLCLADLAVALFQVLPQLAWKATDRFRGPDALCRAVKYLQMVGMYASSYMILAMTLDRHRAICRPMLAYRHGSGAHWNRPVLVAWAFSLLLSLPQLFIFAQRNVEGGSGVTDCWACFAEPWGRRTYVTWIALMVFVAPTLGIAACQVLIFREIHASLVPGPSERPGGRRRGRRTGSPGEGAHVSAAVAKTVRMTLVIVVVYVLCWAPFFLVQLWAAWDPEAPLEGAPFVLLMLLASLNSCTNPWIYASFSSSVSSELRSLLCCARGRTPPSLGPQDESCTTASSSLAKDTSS
T1 sequence (P37288 whole entry): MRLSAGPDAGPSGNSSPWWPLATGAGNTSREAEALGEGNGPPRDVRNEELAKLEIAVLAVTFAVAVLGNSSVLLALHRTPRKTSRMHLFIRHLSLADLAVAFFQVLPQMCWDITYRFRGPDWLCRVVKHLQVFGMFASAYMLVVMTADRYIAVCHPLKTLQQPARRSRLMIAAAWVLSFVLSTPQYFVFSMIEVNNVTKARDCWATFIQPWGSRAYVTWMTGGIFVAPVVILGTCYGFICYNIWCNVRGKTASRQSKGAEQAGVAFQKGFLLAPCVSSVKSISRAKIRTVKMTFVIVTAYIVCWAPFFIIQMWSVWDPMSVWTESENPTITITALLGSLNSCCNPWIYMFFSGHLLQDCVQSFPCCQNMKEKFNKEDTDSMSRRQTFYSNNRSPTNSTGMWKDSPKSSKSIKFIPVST

With `CC1CN(C(=O)c2cccc(Cl)c2-n2cnc(Cn3nc(-c4ccc(Cl)cc4)n(C[C@H](O)C(F)(F)F)c3=O)n2)CCO1` (mixture of isomers) [Example 377, 2-{[1-(2-Chloro-6-{[2-methylmorpholin-4-yl]carbonyl}phenyl)-1H-1,2,4-triazol-3-yl]methyl}-5-(4-chlorophenyl)-4-[(2S)-3,3,3-trifluoro-2-hydroxypropyl]-2,4-dihydro-3H-1,2,4-triazol-3-one], in assay [1], the IC50 came to 0.295 µM and the “ratio IC50 hV2/hV1a” value is on record as 29.2. In addition, in assay [2], the IC50 was 8.6 µM.

On to `NC(=O)C1CCCN1C(=O)c1cccc(Cl)c1-n1cnc(Cn2nc(-c3ccc(Cl)cc3)n(C[C@H](O)C(F)(F)F)c2=O)n1` (mixture of isomers) [Example 378, 1-{3-Chloro-2-[3-({3-(4-chlorophenyl)-5-oxo-4-[(2S)-3,3,3-trifluoro-2-hydroxypropyl]-4,5-dihydro-1H-1,2,4-triazol-1-yl}methyl)-1H-1,2,4-triazol-1-yl]benzoyl}-prolinamide], for which, in assay [1], the IC50 was determined as 0.12 µM and the “ratio IC50 hV2/hV1a” value was 17.1. Further, in assay [2], the IC50 amounted to 2.05 µM.

For the compound `O=C(c1cccc(Cl)c1-n1cnc(Cn2nc(-c3ccc(Cl)cc3)n(C[C@H](O)C(F)(F)F)c2=O)n1)N1CCC(O)(C(F)(F)F)C1` (mixture of isomers) [Example 379, 2-{[1-(2-Chloro-6-{[hydroxy-3-(trifluoromethyl)pyrrolidin-1-yl]carbonyl}phenyl)-1H-1,2,4-triazol-3-yl]methyl}-5-(4-chlorophenyl)-4-[(2S)-3,3,3-trifluoro-2-hydroxypropyl]-2,4-dihydro-3H-1,2,4-triazol-3-one], the IC50 was 0.0705 µM in assay [1] and 0.845 µM in assay [2].

Take `O=C(c1cccc(Cl)c1-n1cnc(Cn2nc(-c3ccc(Cl)cc3)n(C[C@H](O)C(F)(F)F)c2=O)n1)N1CCOC(C(F)(F)F)C1` (mixture of isomers) [Example 380, 5-(4-Chlorophenyl)-2-{[1-(2-chloro-6-{[2-(trifluoromethyl)morpholin-4-yl]carbonyl}phenyl)-1H-1,2,4-triazol-3-yl]methyl}-4-[(2S)-3,3,3-trifluoro-2-hydroxypropyl]-2,4-dihydro-3H-1,2,4-triazol-3-one]: the IC50 in assay [1] is 0.0955 µM; in assay [2], 4 µM. The “ratio IC50 hV2/hV1a” value in assay [1] is given as 41.9.

With `O=C(c1cccc(Cl)c1-n1cnc(Cn2nc(-c3ccc(Cl)cc3)n(C[C@H](O)C(F)(F)F)c2=O)n1)N1CCC(C(F)(F)F)C1` (mixture of isomers) [Example 386, 5-(4-Chlorophenyl)-2-{[1-(2-chloro-6-{[3-(trifluoromethyl)pyrrolidin-1-yl]carbonyl}phenyl)-1H-1,2,4-triazol-3-yl]methyl}-4-[(2S)-3,3,3-trifluoro-2-hydroxypropyl]-2,4-dihydro-3H-1,2,4-triazol-3-one], the IC50 in assay [1] was 0.17 µM; in assay [2], 4.15 µM. In addition, in assay [1], the “ratio IC50 hV2/hV1a” value amounted to 24.4.

Take `NC(CNC(=O)c1cccc(Cl)c1-n1cnc(Cn2nc(-c3ccc(Cl)cc3)n(C[C@H](O)C(F)(F)F)c2=O)n1)C(F)(F)F` (mixture of isomers) [Example 390, N-[2-Amino-3,3,3-trifluoropropyl]-3-chloro-2-[3-({3-(4-chlorophenyl)-5-oxo-4-[(2S)-3,3,3-trifluoro-2-hydroxypropyl]-4,5-dihydro-1H-1,2,4-triazol-1-yl}methyl)-1H-1,2,4-triazol-1-yl]benzamide]: in assay [1], the IC50 was 0.069 µM and the “ratio IC50 hV2/hV1a” value was found to be 7.7. The IC50 in assay [2] was 0.53 µM.

On to `O=C(NC1CC1(F)F)c1cccc(Cl)c1-n1cnc(Cn2nc(-c3ccc(Cl)cc3)n(C[C@@H](O)C(F)(F)F)c2=O)n1` (mixture of isomers) [Example 395, 3-Chloro-2-[3-({3-(4-chlorophenyl)-5-oxo-4-[(2R)-3,3,3-trifluoro-2-hydroxypropyl]-4,5-dihydro-1H-1,2,4-triazol-1-yl}methyl)-1H-1,2,4-triazol-1-yl]-N-[2,2-difluorocyclopropyl]benzamide], for which, in assay [1], the half-maximal inhibitory concentration (IC50) came out at 0.082 µM and the “ratio IC50 hV2/hV1a” value was determined as 62.8. Besides, the IC50 in assay [2] came to 5.15 µM.
